In patent US20120225909A1, “INDAZOLE ANALOG” (priority 2009, published 2012):
pEC50: −log10 of the molar value. Like-named read-outs stand apart in the source and are kept apart here.

Key:
[1] = biological target: T1, human β3-adrenergic receptor (Homo sapiens, UniProt P13945); test: Test Case 1-B: human β3-adrenergic receptor agonist activity (cAMP-Screen, 96-well); format: cell-based
T1 construct: A full-length human β3 gene is obtained from a human genomic library (made by Clontech) using this as the probe; expressed in transfected cells; host or cells: CHO (Chinese hamster ovary) cells, pcDNA3
T1 sequence (P13945 whole entry): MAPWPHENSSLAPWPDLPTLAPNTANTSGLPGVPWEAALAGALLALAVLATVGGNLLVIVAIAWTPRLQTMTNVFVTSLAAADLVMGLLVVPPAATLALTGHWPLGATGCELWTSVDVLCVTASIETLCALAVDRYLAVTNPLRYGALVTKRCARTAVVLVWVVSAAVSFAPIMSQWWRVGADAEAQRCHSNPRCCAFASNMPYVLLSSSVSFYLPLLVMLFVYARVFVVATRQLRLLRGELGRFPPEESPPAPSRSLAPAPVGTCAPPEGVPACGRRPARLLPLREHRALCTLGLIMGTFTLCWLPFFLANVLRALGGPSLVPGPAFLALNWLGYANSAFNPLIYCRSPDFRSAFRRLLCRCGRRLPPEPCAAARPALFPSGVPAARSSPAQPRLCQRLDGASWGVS
Summary of the method: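 CHO cells stably transfected with full-length human β3 gene, serum-starved 15 min, then exposed to serially diluted compound in Ham's F-12 with 100 mmol/L HEPES and 1 mmol/L IBMX (diluent concentrations) for 30 min. Cells lysed 30 min at 37 °C; cAMP quantified by cAMP-Screen immunoassay.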

[2] = tested on: common marmoset isolated bladder smooth muscle; test: Test Case 7: common marmoset isolated bladder smooth muscle relaxation test; details: KCl 40 mmol/L contracted marmoset bladder, papaverine 10^−4 mol/L relaxation = 100%
Procedure: Common Marmoset Isolated Bladder Smooth Muscle Relaxation Test
After sacrificing common marmosets (Japan CLEA) by exsanguination, they are laparotomized and the urinary bladder is removed. […] The specimens are loaded with one gram of resting tension and stabilized for 30 or more minutes. After the resting tension of the specimen has stabilized, a final concentration of 40 mmol/L of KCl is added repeatedly, and it is confirmed that the contraction in response to KCl has basically become constant. […] Taking that relaxation response as 100%, the relaxation rate (%) at test compound concentrations of […] is calculated.

[3] = 0.5 h; read-out: β3 receptor I.A.

| SMILES | Emax [1, 3] | pEC50 ([1]; Test Case 1-B; CHO cells, cAMP) | relaxant activity (%) 10^−4M [2] | relaxant activity (%) 10^−5M [2] | Emax ([1]; 0.5 h, read-out: β3 receptor I.A.) |
| --- | --- | --- | --- | --- | --- |
| O=S(=O)(Nc1cccc([C@@H](O)CNCCOc2ccc3c(OC(F)F)n[nH]c3c2)c1)C1CC1 [ex4, (R)—N-(3-(2-(2-(3-(difluoromethoxy)-indazol-6-yloxy)ethylamino)-1-hydroxyethyl)phenyl)cyclopropanesulfonamide] | 77% | 7.42 | 53.7% | 30.1% |  |
| Cc1n[nH]c2cc(OCCNC[C@H](O)c3cccc(NS(=O)(=O)C4CCC4)c3)ccc12 [ex3, (R)—N-(3-(1-hydroxy-2-(2-(3-methylindazol-6-yloxy)ethylamino)ethyl)phenyl)cyclobutanesulfonamide] |  | 7.77 | 63.2% | 36.6% | 105% |
| Cc1n[nH]c2cc(OCCNC[C@H](O)c3cccc(NS(=O)(=O)c4ccccc4F)c3)ccc12 [ex235, (R)-2-fluoro-N-(3-(1-hydroxy-2-(2-(3-methylindazol-6-yloxy)ethylamino)ethyl)phenyl)benzenesulfonamide] | 113% | 7.55 | 55.3% | 24.3% |  |
